According to the NIST ThermoML archive (doi:10.1016/j.jct.2008.07.009):

Assay: xn = mol fraction of the nth substance listed
Conditions: 101 kPa, Liquid, Vibrating tube method

CC(=O)N1CCOCC1 [4-acetylmorpholine] + CCc1ccccc1
mass density [kg/m3]
Conditions | 293.15 K | 303.15 K | 313.15 K | 323.15 K | 333.15 K | 343.15 K
x2 = 0.0456 | 1102.4 | 1094.5 | 1085.9 | 1077.3 | 1068.9 | 1060.3
x2 = 0.1256 | 1082.6 | 1074.7 | 1066.2 | 1057.7 | 1049.2 | 1040.6
x2 = 0.1853 | 1068 | 1060 | 1051.5 | 1042.9 | 1034.3 | 1025.7
x2 = 0.2457 | 1053.2 | 1045.2 | 1036.6 | 1027.9 | 1019.4 | 1010.6
x2 = 0.2984 | 1040.5 | 1032.4 | 1023.7 | 1015 | 1006.3 | 997.5
x2 = 0.3486 | 1028.3 | 1020.1 | 1011.4 | 1002.6 | 993.8 | 985
x2 = 0.3899 | 1018.3 | 1010 | 1001.2 | 992.4 | 983.6 | 974.7
x2 = 0.4452 | 1004.8 | 996.5 | 987.7 | 978.9 | 969.9 | 960.9
x2 = 0.4843 | 995.3 | 986.9 | 978 | 969.2 | 960.2 | 951.2
x2 = 0.5433 | 980.8 | 972.3 | 963.5 | 954.6 | 945.6 | 936.6
x2 = 0.5894 | 969.5 | 961 | 952.1 | 943.2 | 934.2 | 925.2
x2 = 0.6555 | 953.2 | 944.7 | 935.8 | 926.9 | 917.8 | 908.8
x2 = 0.6983 | 942.6 | 934 | 925.1 | 916.2 | 907.2 | 898.3
x2 = 0.7452 | 931 | 922.4 | 913.5 | 904.6 | 895.6 | 886.6
x2 = 0.7984 | 917.7 | 909 | 900.2 | 891.2 | 882.3 | 873.4
x2 = 0.8422 | 906.7 | 898 | 889.3 | 880.4 | 871.4 | 862.4
x2 = 0.9328 | 884.2 | 875.5 | 866.7 | 857.8 | 848.7 | 839.7
x2 = 0.9784 | 872.8 | 864.1 | 855.2 | 846.2 | 837.1 | 828

CC(=O)N1CCOCC1 [4-acetylmorpholine] + Cc1cc(C)cc(C)c1
mass density [kg/m3]
Conditions | 293.15 K | 303.15 K | 313.15 K | 323.15 K | 333.15 K | 343.15 K
x2 = 0.0654 | 1094.6 | 1086.8 | 1077.7 | 1069.3 | 1060.8 | 1052.2
x2 = 0.1128 | 1081.2 | 1073.4 | 1063.8 | 1055.4 | 1046.9 | 1038.5
x2 = 0.1763 | 1063.5 | 1055.7 | 1045.7 | 1037.3 | 1028.9 | 1020.4
x2 = 0.2254 | 1050.2 | 1042.3 | 1032 | 1023.5 | 1015.1 | 1006.7
x2 = 0.2845 | 1034.5 | 1026.5 | 1015.8 | 1007.4 | 999 | 990.6
x2 = 0.3241 | 1024.2 | 1016.2 | 1005.2 | 996.8 | 988.4 | 980
x2 = 0.3837 | 1008.9 | 1000.9 | 989.5 | 981 | 972.7 | 964.3
x2 = 0.4266 | 998.1 | 990.1 | 978.3 | 969.9 | 961.6 | 953.2
x2 = 0.4978 | 980.4 | 972.3 | 960.2 | 951.9 | 943.5 | 935.2
x2 = 0.5436 | 969.2 | 961.1 | 948.8 | 940.4 | 932.1 | 923.8
x2 = 0.6116 | 952.8 | 944.8 | 932.1 | 923.9 | 915.6 | 907.3
x2 = 0.6984 | 932.5 | 924.4 | 911.4 | 903.1 | 894.9 | 886.8
x2 = 0.7452 | 921.6 | 913.6 | 900.4 | 892.2 | 884 | 875.9
x2 = 0.7944 | 910.4 | 902.3 | 888.9 | 880.8 | 872.7 | 864.6
x2 = 0.8541 | 897 | 889 | 875.4 | 867.2 | 859.1 | 851
x2 = 0.8932 | 888.3 | 880.2 | 866.5 | 858.4 | 850.3 | 842.2
x2 = 0.9423 | 877.5 | 869.5 | 855.6 | 847.5 | 839.4 | 831.3
x2 = 0.9833 | 868.7 | 860.6 | 846.5 | 838.5 | 830.4 | 822.3

CC(=O)N1CCOCC1 [4-acetylmorpholine] + Cc1ccccc1
mass density [kg/m3]
Conditions | 293.15 K | 303.15 K | 313.15 K | 323.15 K | 333.15 K | 343.15 K
x2 = 0.0498 | 1104.1 | 1096.4 | 1087.8 | 1079.4 | 1071.2 | 1063.2
x2 = 0.0975 | 1094.3 | 1086.5 | 1077.8 | 1069.6 | 1061.4 | 1053.3
x2 = 0.1453 | 1084 | 1076.5 | 1068.2 | 1059.9 | 1051.6 | 1043.4
x2 = 0.2109 | 1070.1 | 1062.5 | 1054 | 1045.6 | 1036.8 | 1029.2
x2 = 0.2873 | 1053.3 | 1045.4 | 1037.1 | 1028.6 | 1020.2 | 1012
x2 = 0.3276 | 1044.3 | 1036.5 | 1028.1 | 1019.5 | 1011 | 1002.5
x2 = 0.3865 | 1030.8 | 1022.8 | 1014.6 | 1005.8 | 997.2 | 988.6
x2 = 0.4536 | 1015.1 | 1007 | 998.7 | 989.8 | 981.2 | 972.2
x2 = 0.4953 | 1005.1 | 996.9 | 988.7 | 979.7 | 970.8 | 962.1
x2 = 0.5235 | 998.4 | 990 | 981.7 | 972.7 | 964.1 | 954.5
x2 = 0.5641 | 988.2 | 979.8 | 971.6 | 962.5 | 953.8 | 944.9
x2 = 0.6033 | 978.3 | 969.9 | 961.7 | 952.5 | 943.8 | 935
x2 = 0.6844 | 957.3 | 949 | 940.7 | 931.5 | 922.7 | 913.9
x2 = 0.7562 | 937.8 | 929.6 | 921.3 | 912.1 | 903.2 | 894.7
x2 = 0.8126 | 922.2 | 913.7 | 905.5 | 896.2 | 887.4 | 879.3
x2 = 0.8843 | 901.8 | 893.2 | 885 | 875.6 | 866.8 | 857.9
x2 = 0.9225 | 890.5 | 881.8 | 873.5 | 864.1 | 855.3 | 846.4
x2 = 0.9832 | 872.3 | 863.3 | 855.2 | 845.9 | 837.1 | 828.2

CC(=O)N1CCOCC1 [4-acetylmorpholine] + c1ccccc1
mass density [kg/m3]
Conditions | 293.15 K | 303.15 K | 313.15 K | 323.15 K | 333.15 K | 343.15 K
x2 = 0.0546 | 1104.6 | 1096.7 | 1088.2 | 1079.6 | 1071 | 1062.4
x2 = 0.1127 | 1094.9 | 1086.8 | 1078.1 | 1069.3 | 1060.6 | 1051.8
x2 = 0.1568 | 1087.2 | 1079 | 1070.2 | 1061.2 | 1052.4 | 1043.5
x2 = 0.2099 | 1078 | 1069.6 | 1060.6 | 1051.3 | 1042.3 | 1033.2
x2 = 0.2673 | 1067.5 | 1058.9 | 1049.8 | 1040.5 | 1031.4 | 1022.1
x2 = 0.3128 | 1059 | 1050.2 | 1040.9 | 1031.6 | 1022.2 | 1012.9
x2 = 0.3564 | 1050.6 | 1041.7 | 1032.3 | 1022.8 | 1013.4 | 1003.9
x2 = 0.4056 | 1040.8 | 1031.7 | 1022.2 | 1012.5 | 1002.9 | 993.3
x2 = 0.4562 | 1030.1 | 1020.8 | 1011.2 | 1001.4 | 991.7 | 981.8
x2 = 0.5039 | 1019.5 | 1010.1 | 1000.3 | 990.4 | 980.6 | 970.6
x2 = 0.5683 | 1004.5 | 994.9 | 984.9 | 974.9 | 964.9 | 954.8
x2 = 0.6138 | 993.3 | 983.5 | 973.5 | 963.4 | 953.2 | 942.6
x2 = 0.6866 | 974.4 | 964.5 | 954.3 | 943.9 | 933.6 | 923.3
x2 = 0.7437 | 958.7 | 948.6 | 938.3 | 927.7 | 917.6 | 907.1
x2 = 0.8033 | 941.3 | 931.1 | 920.7 | 910.2 | 899.7 | 889.2
x2 = 0.8659 | 922.4 | 912.1 | 901.6 | 891 | 880.5 | 869.8
x2 = 0.9154 | 906.8 | 896.3 | 885.8 | 875.2 | 864.6 | 853.8
x2 = 0.9687 | 889.4 | 878.9 | 868.4 | 857.7 | 847 | 836.3
